According to ChEMBL document CHEMBL1201862, “PubChem BioAssay data set” (2004):
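Cells were grown in 96-well plates and exposed to each compound for 48 hours at five concentrations; endpoints were interpolated linearly between bracketing concentrations, or set to the highest concentration if not reached. Abbreviation: GI50, concentration required for 50% inhibition of growth.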 Active and inactive are the calls of the source. No stated cut-off is given here; in the data, active = GI50 up to about 1.1 µM and inactive = higher.

Tests used:
Assay in all cases: growth of human tumour cells (NCI), 48 h
786-0 = system: 786-0
A498 = system: A498
A549 = system: A549
ACHN = system: ACHN
BT-549 = system: BT-549
CAKI-1 = system: CAKI-1
CCRF-CEM = system: CCRF-CEM
COLO 205 = system: COLO 205
DU-145 = system: DU-145
EKVX = system: EKVX
HCC 2998 = system: HCC 2998
HCT-116 = system: HCT-116
HCT-15 = system: HCT-15
HL-60 = system: HL-60
HOP-62 = system: HOP-62
HOP-92 = system: HOP-92
HT-29 = system: HT-29
Hs-578T = system: Hs-578T
IGROV-1 = system: IGROV-1
K562 = system: K562
KM12 = system: KM12
LOX IMVI = system: LOX IMVI
M14 = system: M14
MCF7 = system: MCF7
MDA-MB-231 = system: MDA-MB-231
MDA-MB-435 = system: MDA-MB-435
MDA-N = system: MDA-N
MOLT-4 = system: MOLT-4
NCI-H226 = system: NCI-H226
NCI-H23 = system: NCI-H23
NCI-H460 = system: NCI-H460
NCI/ADR-RES = system: NCI/ADR-RES
OVCAR-3 = system: OVCAR-3
OVCAR-4 = system: OVCAR-4
OVCAR-5 = system: OVCAR-5
OVCAR-8 = system: OVCAR-8
PC-3 = system: PC-3
RPMI-8226 = system: RPMI-8226
RXF 393 = system: RXF 393
SF-268 = system: SF-268
SF-295 = system: SF-295
SF-539 = system: SF-539
SK-MEL-28 = system: SK-MEL-28
SK-MEL-2 = system: SK-MEL-2
SK-MEL-5 = system: SK-MEL-5
SK-OV-3 = system: SK-OV-3
SN12C = system: SN12C
SNB-19 = system: SNB-19
SNB-75 = system: SNB-75
SR = system: SR
SW-620 = system: SW-620
T47D = system: T47D
TK-10 = system: TK-10
U-251 = system: U-251
UACC-257 = system: UACC-257
UACC-62 = system: UACC-62
UO-31 = system: UO-31
Malme-3M = system: Malme-3M
NCI-H522 = system: NCI-H522

COc1ccc2nc3n(c2c1)C(c1c(F)cccc1F)SC3 (stereo unspecified)
GI50 (786-0): 39.6 µM (inactive)
GI50 (A498): 95.3 µM (inactive)
GI50 (A549): 49 µM (inactive)
GI50 (ACHN): 34 µM (inactive)
GI50 (BT-549): > 100 µM (inactive)
GI50 (CAKI-1): 94 µM (inactive)
GI50 (CCRF-CEM): 54.1 µM (inactive)
GI50 (COLO 205): > 100 µM (inactive)
GI50 (DU-145): 42.3 µM (inactive)
GI50 (EKVX): 18.9 µM (inactive)
GI50 (HCC 2998): 78 µM (inactive)
GI50 (HCT-116): 25.4 µM (inactive)
GI50 (HCT-15): 43.2 µM
GI50 (HL-60): 23.3 µM (inactive)
GI50 (HOP-62): 61.7 µM (inactive)
GI50 (HOP-92): 51.1 µM (inactive)
GI50 (HT-29): 25.7 µM (inactive)
GI50 (Hs-578T): 22.3 µM (inactive)
GI50 (IGROV-1): 40.1 µM (inactive)
GI50 (K562): 50.4 µM (inactive)
GI50 (KM12): 40.2 µM (inactive)
GI50 (LOX IMVI): 47.3 µM (inactive)
GI50 (M14): > 100 µM (inactive)
GI50 (MCF7): 32 µM (inactive)
GI50 (MDA-MB-231): > 100 µM (inactive)
GI50 (MDA-MB-435): 39.1 µM (inactive)
GI50 (MDA-N): 61.4 µM (inactive)
GI50 (MOLT-4): 32.4 µM (inactive)
GI50 (NCI-H226): 19.9 µM (inactive)
GI50 (NCI-H23): 25.9 µM (inactive)
GI50 (NCI-H460): 35 µM (inactive)
GI50 (NCI/ADR-RES): 19.1 µM (inactive)
GI50 (OVCAR-3): 28.6 µM (inactive)
GI50 (OVCAR-4): 64.4 µM (inactive)
GI50 (OVCAR-5): > 100 µM (inactive)
GI50 (OVCAR-8): 36.6 µM (inactive)
GI50 (PC-3): 29.7 µM (inactive)
GI50 (RPMI-8226): 29.9 µM (inactive)
GI50 (RXF 393): > 100 µM (inactive)
GI50 (SF-268): 29 µM (inactive)
GI50 (SF-295): 38.6 µM (inactive)
GI50 (SF-539): > 100 µM (inactive)
GI50 (SK-MEL-28): > 100 µM (inactive)
GI50 (SK-MEL-2): 11.1 µM (inactive)
GI50 (SK-MEL-5): 33.2 µM (inactive)
GI50 (SK-OV-3): > 100 µM (inactive)
GI50 (SN12C): > 100 µM (inactive)
GI50 (SNB-19): 20.8 µM (inactive)
GI50 (SNB-75): 74.6 µM (inactive)
GI50 (SR): 37.9 µM (inactive)
GI50 (SW-620): 64.6 µM (inactive)
GI50 (T47D): 22.3 µM (inactive)
GI50 (TK-10): 77.4 µM (inactive)
GI50 (U-251): 51.8 µM (inactive)
GI50 (UACC-257): > 100 µM (inactive)
GI50 (UACC-62): 56.9 µM (inactive)
GI50 (UO-31): 51.9 µM (inactive)

O=C(O)CN(CC(=O)O)C1CCCCC1N1CC(=O)OC(=O)C1 (stereo unspecified)
GI50 (786-0): > 100 µM (inactive)
GI50 (A498): > 100 µM (inactive)
GI50 (A549): > 100 µM (inactive)
GI50 (ACHN): > 100 µM (inactive)
GI50 (BT-549): > 100 µM (inactive)
GI50 (CAKI-1): > 100 µM (inactive)
GI50 (CCRF-CEM): > 100 µM (inactive)
GI50 (COLO 205): > 100 µM (inactive)
GI50 (DU-145): > 100 µM (inactive)
GI50 (EKVX): > 100 µM (inactive)
GI50 (HCC 2998): 74.3 µM (inactive)
GI50 (HCT-116): > 100 µM (inactive)
GI50 (HCT-15): 95.9 µM
GI50 (HL-60): > 100 µM (inactive)
GI50 (HOP-62): > 100 µM (inactive)
GI50 (HOP-92): > 100 µM (inactive)
GI50 (HT-29): 38.4 µM (inactive)
GI50 (Hs-578T): 47.1 µM (inactive)
GI50 (IGROV-1): 49.1 µM (inactive)
GI50 (K562): 71.8 µM (inactive)
GI50 (KM12): > 100 µM (inactive)
GI50 (LOX IMVI): > 100 µM (inactive)
GI50 (M14): > 100 µM (inactive)
GI50 (MCF7): 69.3 µM (inactive)
GI50 (MDA-MB-231): > 100 µM (inactive)
GI50 (MDA-MB-435): > 100 µM (inactive)
GI50 (MDA-N): > 100 µM (inactive)
GI50 (MOLT-4): > 100 µM (inactive)
GI50 (Malme-3M): 10.3 µM (inactive)
GI50 (NCI-H226): > 100 µM (inactive)
GI50 (NCI-H23): > 100 µM (inactive)
GI50 (NCI-H460): > 100 µM (inactive)
GI50 (NCI-H522): > 100 µM (inactive)
GI50 (NCI/ADR-RES): > 100 µM (inactive)
GI50 (OVCAR-3): > 100 µM (inactive)
GI50 (OVCAR-4): > 100 µM (inactive)
GI50 (OVCAR-5): > 100 µM (inactive)
GI50 (OVCAR-8): > 100 µM (inactive)
GI50 (PC-3): > 100 µM (inactive)
GI50 (RPMI-8226): > 100 µM (inactive)
GI50 (SF-268): 61.7 µM (inactive)
GI50 (SF-295): > 100 µM (inactive)
GI50 (SF-539): > 100 µM (inactive)
GI50 (SK-MEL-28): > 100 µM (inactive)
GI50 (SK-MEL-2): > 100 µM (inactive)
GI50 (SK-MEL-5): > 100 µM (inactive)
GI50 (SK-OV-3): > 100 µM (inactive)
GI50 (SN12C): > 100 µM (inactive)
GI50 (SNB-19): > 100 µM (inactive)
GI50 (SNB-75): 17.2 µM (inactive)
GI50 (SR): 71.4 µM (inactive)
GI50 (SW-620): 42.6 µM (inactive)
GI50 (T47D): 51.3 µM (inactive)
GI50 (TK-10): > 100 µM (inactive)
GI50 (U-251): 43.4 µM (inactive)
GI50 (UACC-257): > 100 µM (inactive)
GI50 (UACC-62): > 100 µM (inactive)
GI50 (UO-31): > 100 µM (inactive)

Oc1ccccc1CNCc1nc2ccccc2[nH]1
GI50 (786-0): 26.1 µM (inactive)
GI50 (A498): > 100 µM (inactive)
GI50 (A549): > 100 µM (inactive)
GI50 (ACHN): 12.9 µM (inactive)
GI50 (BT-549): 75.7 µM (inactive)
GI50 (CAKI-1): 69.3 µM (inactive)
GI50 (CCRF-CEM): 29 µM (inactive)
GI50 (COLO 205): 29.7 µM (inactive)
GI50 (DU-145): > 100 µM (inactive)
GI50 (EKVX): 36.1 µM (inactive)
GI50 (HCC 2998): > 100 µM (inactive)
GI50 (HCT-116): 37 µM (inactive)
GI50 (HCT-15): 3.01 µM
GI50 (HL-60): 40.9 µM (inactive)
GI50 (HOP-62): 69 µM (inactive)
GI50 (HOP-92): 73.5 µM (inactive)
GI50 (HT-29): 0.495 µM (active)
GI50 (Hs-578T): > 100 µM (inactive)
GI50 (IGROV-1): > 100 µM (inactive)
GI50 (K562): 51.2 µM (inactive)
GI50 (KM12): 89.5 µM (inactive)
GI50 (LOX IMVI): 57 µM (inactive)
GI50 (M14): 86.3 µM (inactive)
GI50 (MCF7): > 100 µM (inactive)
GI50 (MDA-MB-231): 71.9 µM (inactive)
GI50 (MDA-MB-435): > 100 µM (inactive)
GI50 (MDA-N): > 100 µM (inactive)
GI50 (MOLT-4): 65.5 µM (inactive)
GI50 (NCI-H226): 20.9 µM (inactive)
GI50 (NCI-H23): > 100 µM (inactive)
GI50 (NCI-H522): > 100 µM (inactive)
GI50 (NCI/ADR-RES): 15.9 µM (inactive)
GI50 (OVCAR-3): 33.7 µM (inactive)
GI50 (OVCAR-4): > 100 µM (inactive)
GI50 (OVCAR-5): > 100 µM (inactive)
GI50 (OVCAR-8): 29 µM (inactive)
GI50 (PC-3): 71.9 µM (inactive)
GI50 (RPMI-8226): 17.7 µM (inactive)
GI50 (RXF 393): 75 µM (inactive)
GI50 (SF-268): > 100 µM (inactive)
GI50 (SF-295): 45.8 µM (inactive)
GI50 (SF-539): > 100 µM (inactive)
GI50 (SK-MEL-28): > 100 µM (inactive)
GI50 (SK-MEL-2): > 100 µM (inactive)
GI50 (SK-MEL-5): 22.4 µM (inactive)
GI50 (SN12C): > 100 µM (inactive)
GI50 (SNB-19): > 100 µM (inactive)
GI50 (SNB-75): 57.4 µM (inactive)
GI50 (SR): 50 µM (inactive)
GI50 (SW-620): 55.3 µM (inactive)
GI50 (T47D): > 100 µM (inactive)
GI50 (TK-10): 83 µM (inactive)
GI50 (U-251): 41.5 µM (inactive)
GI50 (UACC-257): > 100 µM (inactive)
GI50 (UACC-62): 78.7 µM (inactive)
GI50 (UO-31): 11.2 µM (inactive)
